Experimental data: US9783537B2, “3-(4-ethylnylphenyl) pyridopyrimidinone compounds and process for preparation thereof useful as potential anticancer agents” (Council of Scientific & Industrial Research, priority 2013, dated 2017)
Like-named read-outs stand apart in the source and are kept apart here.

Legend:
CCRF-CEM = experiment: SRB 48 h growth assay, Leukemia CCRF-CEM; assay type: cell-based, human
K-562 = experiment: SRB 48 h growth assay, Leukemia K-562; assay type: cell-based, human
RPMI-8226 = experiment: SRB 48 h growth assay, Leukemia RPMI-8226; assay type: cell-based, human; conditions: RPMI-8226, Leukemia
A549/ATCC = experiment: SRB 48 h growth assay, Non-small Cell Lung A549/ATCC; assay type: cell-based, human
HOP-62 = experiment: SRB 48 h growth assay, Non-small Cell Lung HOP-62; assay type: cell-based, human; conditions: HOP-62, Non-small Cell Lung
NCI-H23 = experiment: SRB 48 h growth assay, Non-small Cell Lung NCI-H23; assay type: cell-based, human
NCI-H522 = experiment: SRB 48 h growth assay, Non-small Cell Lung NCI-H522; assay type: cell-based, human
M14 = experiment: SRB 48 h growth assay, Melanoma M14; assay type: cell-based, human
MDA-MB-435 = experiment: SRB 48 h growth assay, Melanoma MDA-MB-435; assay type: cell-based, human; conditions: MDA-MB-435, Melanoma
UACC-62 = experiment: SRB 48 h growth assay, Melanoma UACC-62; assay type: cell-based, human; conditions: UACC-62, Melanoma
OVCAR-4 = experiment: SRB 48 h growth assay, Ovarian OVCAR-4; assay type: cell-based, human; conditions: OVCAR-4, Ovarian
786-0 = experiment: SRB 48 h growth assay, Renal 786-0; assay type: cell-based, human; conditions: 786-0, Renal
ACHN = experiment: SRB 48 h growth assay, Renal ACHN; assay type: cell-based, human
RXF393 = experiment: SRB 48 h growth assay, Renal RXF393; assay type: cell-based, human
TK-10 = experiment: SRB 48 h growth assay, Renal TK-10; assay type: cell-based, human; conditions: TK-10, Renal
PC-3 = experiment: SRB 48 h growth assay, Prostate PC-3; assay type: cell-based, human; conditions: PC-3, Prostate
DU-145 = experiment: SRB 48 h growth assay, Prostate DU-145; assay type: cell-based, human; conditions: DU-145, Prostate
MCF7 = experiment: SRB 48 h growth assay, Breast MCF7; assay type: cell-based, human
MDA-MB-231/ATCC = experiment: SRB 48 h growth assay, Breast MDA-MB-231/ATCC; assay type: cell-based, human
HS578T = experiment: SRB 48 h growth assay, Breast HS578T; assay type: cell-based, human
BT-549 = experiment: SRB 48 h growth assay, Breast BT-549; assay type: cell-based, human; conditions: BT-549, Breast
[1] = system: seven colon cancer cell line (COLO 205, HCC-2998, HCT-116, HCT-15, HT29, KM12 and SW-620); experiment: in vitro anticancer activity, colon panel; assay type: cell-based; conditions: Homo sapiens; seven colon cancer cell lines, exposure at least 48 h; read-out: GI50, range over panel
[2] = system: six CNS cancer cell line (SF-268, SF-295, SF-539, SNB-19, SNB-75 and U251); experiment: in vitro anticancer activity, CNS panel; assay type: cell-based; conditions: Homo sapiens; six CNS cancer cell lines, exposure at least 48 h; read-out: GI50, range over panel
[3] = system: seven ovarian cancer cell lines (IGROV1, OVCAR-3, OVCAR-4, OVCAR-5, OVCAR-8, NCI/ADR-RES and SK-OV-3); experiment: in vitro anticancer activity, ovarian panel; assay type: cell-based; conditions: Homo sapiens, exposure at least 48 h, read-out: GI50, range over panel
[4] = system: two prostate cancer cell line (PC-3, DU-145); experiment: in vitro anticancer activity, prostate panel; assay type: cell-based; conditions: Homo sapiens; two prostate cancer cell lines, exposure at least 48 h; read-out: GI50, range over panel
[5] = system: six breast cancer cell line (MCF-7, MDA-MB-231/ATCC, HS 578T, TD-47D, MDA-MB-468 and BT-549); experiment: in vitro anticancer activity, breast panel; assay type: cell-based; conditions: Homo sapiens; six breast cancer cell lines, exposure at least 48 h; read-out: GI50, range over panel
[6] = Homo sapiens, read-out: Growth Inhibition GI50
[7] = Homo sapiens, read-out: Log10 GI50 (converted)
[8] = Homo sapiens, read-out: Log10 LC50 (converted)

In the case of C#Cc1ccc(-n2c(/C=C/c3ccc4ccccc4c3)nc3ncccc3c2=O)cc1 [4s, (E)-3-(4-Ethynylphenyl)-2-(2-(naphthalen-2-yl)vinyl)pyrido[2,3-d]pyrimidin-4(3H)-one], the “Log10 TGI50” value (CCRF-CEM) is reported as over −4.00, the CC50 (CCRF-CEM; Homo sapiens, CCKF-CEM, read-out: Log10 LC50 (converted)) is reported as over 100 µM and the GI50 (CCRF-CEM; [6]) is reported as 1.53 µM. The GI50 (CCRF-CEM; [7]) was 1.51 µM, the GI50 (K-562; Homo sapiens, K562, K-562, Leukemia, read-out: Growth Inhibition GI50) was 2.43 µM and the GI50 (K-562; Homo sapiens, K562, K-562, Leukemia, read-out: Log10 GI50 (converted)) was 2.45 µM. For the same compound, the CC50 (K-562; Homo sapiens, K562, K-562, Leukemia, read-out: Log10 LC50 (converted)) was over 100 µM, the “Log10 TGI50” value (K-562; K-562, Leukemia) was “->−4.00” and the GI50 (RPMI-8226; [6]) was 0.45 µM. The GI50 (RPMI-8226; [7]) was 0.447 µM, the CC50 (RPMI-8226; [8]) was over 100 µM and the “Log10 TGI50” value (RPMI-8226) was over −4.00. The “Log10 TGI50” value (A549/ATCC) was over −4.00, the GI50 (A549/ATCC; [6]) was 2.73 µM and the GI50 (A549/ATCC; [7]) was 2.75 µM. The CC50 (A549/ATCC; [8]) was over 100 µM, the “Log10 TGI50” value (HOP-62) was over −4.00 and the GI50 (HOP-62; [6]) was 7.45 µM. For the same compound, the GI50 (HOP-62; [7]) was 7.41 µM, the CC50 (HOP-62; [8]) was over 100 µM and the “Log10 TGI50” value (NCI-H23) was over −4.00. It also gave a GI50 (NCI-H23; [6]) of 6.39 µM, a GI50 (NCI-H23; [7]) of 6.46 µM and an LC50 (NCI-H23; [8]) of over 100 µM. For the same compound, the “Log10 TGI50” value (NCI-H522) was over −4.00, the GI50 (NCI-H522; [6]) was 5.11 µM and the GI50 (NCI-H522; [7]) was 5.13 µM. For the same compound, the CC50 (NCI-H522; [8]) was over 100 µM, the “Log10 TGI50” value (M14) was −5.36 and the GI50 (M14; [6]) was 2.07 µM. The GI50 (M14; [7]) was 2.09 µM, the CC50 (M14; [8]) was 4.37 µM and the GI50 (MDA-MB-435; [6]) was 2.06 µM. The GI50 (MDA-MB-435; [7]) was 2.04 µM, the CC50 (MDA-MB-435; [8]) was over 100 µM and the “Log10 TGI50” value (MDA-MB-435) was over −4.00. It also gave a GI50 (UACC-62; [6]) of 2.49 µM, a GI50 (UACC-62; [7]) of 2.51 µM and a CC50 (UACC-62; [8]) of over 100 µM. The “Log10 TGI50” value (UACC-62) was over −4.00, the GI50 (OVCAR-4; [6]) was 1.95 µM and the GI50 (OVCAR-4; [7]) was 1.95 µM. The CC50 (OVCAR-4; [8]) was over 100 µM, the “Log10 TGI50” value (OVCAR-4) was over −4.00 and the “Log10 TGI50” value (786-0) was over −4.00. For the same compound, the GI50 (786-0; [6]) was 4.08 µM, the GI50 (786-0; [7]) was 4.07 µM and the CC50 (786-0; [8]) was over 100 µM. The “Log10 TGI50” value (ACHN) was over −4.00, the GI50 (ACHN; [6]) was 2.57 µM and the GI50 (ACHN; [7]) was 2.57 µM. For the same compound, the CC50 (ACHN; [8]) was over 100 µM, the “Log10 TGI50” value (RXF393) was −5.26 and the GI50 (RXF393; Homo sapiens, RXF 393, read-out: Growth Inhibition GI50) was 1.79 µM. The GI50 (RXF393; Homo sapiens, RXF 393, read-out: Log10 GI50 (converted)) was 1.78 µM, the CC50 (RXF393; Homo sapiens, RXF 393, read-out: Log10 LC50 (converted)) was 5.5 µM and the GI50 (TK-10; [6]) was 4.04 µM. For the same compound, the GI50 (TK-10; [7]) was 4.07 µM, the CC50 (TK-10; [8]) was over 100 µM and the “Log10 TGI50” value (TK-10) was over −4.00. It also gave a GI50 (PC-3; [6]) of 2.35 µM, a GI50 (PC-3; [7]) of 2.34 µM and a CC50 (PC-3; [8]) of over 100 µM. For the same compound, the “Log10 TGI50” value (PC-3) was over −4.00, the “Log10 TGI50” value (DU-145) was over −4.00 and the GI50 (DU-145; [6]) was 7.45 µM. For the same compound, the GI50 (DU-145; [7]) was 7.41 µM, the CC50 (DU-145; [8]) was over 100 µM and the “Log10 TGI50” value (MCF7) was over −4.00. It also gave a GI50 (MCF7; [6]) of 2.43 µM, a GI50 (MCF7; [7]) of 2.45 µM and a CC50 (MCF7; [8]) of over 100 µM. For the same compound, the “Log10 TGI50” value (MDA-MB-231/ATCC) was over −4.00, the GI50 (MDA-MB-231/ATCC; [6]) was 3.74 µM and the GI50 (MDA-MB-231/ATCC; [7]) was 3.72 µM. For the same compound, the CC50 (MDA-MB-231/ATCC; [8]) was over 100 µM, the “Log10 TGI50” value (HS578T) was over −4.00 and the GI50 (HS578T; Homo sapiens, Hs-578T, read-out: Growth Inhibition GI50) was 7.62 µM. For the same compound, the GI50 (HS578T; Homo sapiens, Hs-578T, read-out: Log10 GI50 (converted)) was 7.59 µM, the CC50 (HS578T; Homo sapiens, Hs-578T, read-out: Log10 LC50 (converted)) was over 100 µM and the “Log10 TGI50” value (BT-549) was −5.26. For the same compound, the GI50 (BT-549; [6]) was 1.98 µM, the GI50 (BT-549; [7]) was 2 µM and the CC50 (BT-549; [8]) was 5.5 µM. The GI50 [1] was 0.3 to 0.36 µM, the GI50 [2] was 0.2 to 0.72 µM and the GI50 [3] was 0.3 to 0.4 µM. For the same compound, the GI50 [4] was 0.28 to 0.34 µM and the GI50 [5] was 0.23 to 0.35 µM.
